Assay results published in the NIST ThermoML archive (doi:10.1016/j.jct.2011.10.023).

Conditions: Liquid, Vibrating tube method

CCCCCCCCCO [nonan-1-ol]
mass density [kg/m3]
Conditions | 278.15 K | 288.15 K | 298.15 K | 308.15 K | 318.15 K | 328.15 K | 338.15 K | 348.15 K | 358.15 K
100 kPa | 836.9 | 829.9 | 823.2 | 816.5 | 809.8 | 802.8 | 795.7 | 788.3 | 780.9
1000 kPa | 837.4 | 830.5 | 823.7 | 817.1 | 810.4 | 803.4 | 796.4 | 788.9 | 781.6
5000 kPa | 839.7 | 832.7 | 826.3 | 819.8 | 813.2 | 806.3 | 799.4 | 792.3 | 785
10000 kPa | 842.5 | 835.9 | 829.4 | 822.9 | 816.5 | 809.8 | 803 | 796.1 | 789
15000 kPa | 845.1 | 838.7 | 832.3 | 826 | 819.7 | 813.1 | 806.5 | 799.7 | 792.9
20000 kPa | 847.8 | 841.4 | 835.1 | 828.9 | 822.7 | 816.3 | 809.8 | 803.2 | 796.5
25000 kPa | 850.3 | 844 | 837.9 | 831.8 | 825.6 | 819.3 | 813 | 806.6 | 799.9
30000 kPa | 852.8 | 846.6 | 840.5 | 834.5 | 828.5 | 822.3 | 816.1 | 809.8 | 803.3
35000 kPa | 855.3 | 849.1 | 843.1 | 837.2 | 831.3 | 825.2 | 819.1 | 812.9 | 806.6
40000 kPa | 857.6 | 851.6 | 845.7 | 839.8 | 834 | 828 | 822 | 815.9 | 809.7
45000 kPa | 859.9 | 854 | 848.1 | 842.4 | 836.6 | 830.7 | 824.8 | 818.8 | 812.8
50000 kPa | 862.2 | 856.3 | 850.5 | 844.8 | 839.2 | 833.4 | 827.6 | 821.6 | 815.7
55000 kPa | 864.4 | 858.6 | 852.9 | 847.3 | 841.7 | 836 | 830.2 | 824.4 | 818.6
60000 kPa | 866.4 | 860.7 | 855 | 849.3 | 844 | 838.3 | 832.7 | 826.7 | 821.2

CCCCCCCCCCCO [1-undecanol]
mass density [kg/m3]
Conditions | 298.15 K | 308.15 K | 318.15 K | 328.15 K | 338.15 K | 348.15 K | 358.15 K
100 kPa | 827.7 | 820.9 | 814.1 | 807.4 | 800.5 | 793.3 | 786
1000 kPa | 828.2 | 821.5 | 814.7 | 808 | 801.1 | 793.8 | 786.8
5000 kPa | 830.7 | 824 | 817.4 | 810.8 | 803.9 | 797.1 | 790
10000 kPa | 833.6 | 827.1 | 820.6 | 814.1 | 807.3 | 800.8 | 793.9
15000 kPa | 836.4 | 830 | 823.7 | 817.3 | 810.6 | 804.3 | 797.6
20000 kPa | 839.2 | 832.9 | 826.6 | 820.4 | 813.8 | 807.6 | 801.1
25000 kPa | 841.8 | 835.6 | 829.5 | 823.3 | 816.9 | 810.8 | 804.4
30000 kPa | 844.4 | 838.3 | 832.3 | 826.2 | 819.9 | 813.9 | 807.7
35000 kPa | 846.9 | 840.9 | 834.8 | 829 | 822.8 | 816.9 | 810.8
40000 kPa | 849.4 | 843.4 | 837.6 | 831.7 | 825.6 | 819.9 | 813.9
45000 kPa | 851.8 | 845.9 | 840.1 | 834.4 | 828.4 | 822.7 | 816.6
50000 kPa | 854.2 | 848.3 | 842.6 | 837 | 831 | 825.5 | 819.6
55000 kPa | 856.5 | 850.7 | 845.1 | 839.5 | 833.6 | 828.1 | 822.4
60000 kPa | 858.7 | 852.9 | 847.3 | 841.8 | 836 | 830.7 | 824.9
